Laboratory results: publication PMC3048208 (British Journal of Cancer, 2011)
Structures can show the parent of a compound that is named as a salt.

Test system: patients with advanced solid tumours
Experiment: Phase I safety: DLT and adverse events (CTCAE v3.0)
Conditions: Grades 3/4
[1] = level 1, 10 mg 3 days every 2 weeks, 3 patients

Method: Study drug was administered at a starting dose of 10 mg on days 1–3 and 15–17 for the first dose level while for subsequent dose levels, treatment was administered on days 1–5 and 15–19, within a 28-day cycle. No intra-patient dose escalation was allowed. Dose escalation followed the standard 3+3 rule, but the protocol did allow up to four patients to be entered in the first stage of accrual at each dose level. The maximum administered dose was defined as the dose level at which ⩾2/3 or ⩾2/6 patients experienced dose-limiting toxicity (DLT). The next lower dose would normally be declared the RPTD for expansion to confirm the tolerability and PK and/or PD relationships at this dose level.
In cycle 1, patients were seen on days 1, 5, 8, 15, 19, 22 and weekly in subsequent cycles for laboratory studies and assessment of toxicity. […] In addition, troponin levels were obtained on days 1, 5, 15 in cycle 1 and on day 1 of subsequent cycles.
Patients who experienced any DLT were delayed by 1-week intervals until recovery and could continue on study drug with a reduction of one dose level. If no recovery occurred after a delay of 2 weeks from the next scheduled 5-day treatment, patients were discontinued from protocol treatment. In addition, patients must have an absolute neutrophil count of ⩾1.5 × 10^9 l^−1 and a platelet level of ⩾100 × 10^9 l^−1 before day 1 and 15 dosing.

CCCCc1nc2cc(/C=C/C(=O)NO)ccc2n1CCN(CC)CC [SB939, 3-[2-butyl-1-(2-diethylaminoethyl)-1H-benzoimidazol-5-yl]-N-hydroxyacrylami-hydrochloride]
Myositis, no. of patients [1]: 0 | Nausea, no. of patients [1]: 0 | Neutropenia, no. of patients [1]: 1 | QT prolongation, no. of patients [1]: 0 | Supra ventricular arrythmia, no. of patients [1]: 0 | Syncope, no. of patients [1]: 0 | Thrombocytopenia, no. of patients [1]: 0 | Ventricular arrythmias (PVCs), no. of patients [1]: 0 | Ventricular bigemini, no. of patients [1]: 0 | Vomiting, no. of patients [1]: 0 | ALT (raised), no. of patients (level 2, 10 mg, 6 patients): 0 | AST (raised), no. of patients (level 2, 10 mg, 6 patients): 0 | Abdominal pain, no. of patients (level 2, 10 mg, 6 patients): 0 | Alkaline phophatase (raised), no. of patients (level 2, 10 mg, 6 patients): 1 | Altered taste, no. of patients (level 2, 10 mg, 6 patients): 0 | Anaemia, no. of patients (level 2, 10 mg, 6 patients): 0 | Anorexia, no. of patients (level 2, 10 mg, 6 patients): 0 | Bilirubin (raised), no. of patients (level 2, 10 mg, 6 patients): 0 | CPK, no. of patients (level 2, 10 mg, 6 patients): 0 | Cardiac arrythmia other, no. of patients (level 2, 10 mg, 6 patients): 0 | Cardiac dysfunction, no. of patients (level 2, 10 mg, 6 patients): 0 | Cardiac ischaemia, no. of patients (level 2, 10 mg, 6 patients): 0 | Constipation, no. of patients (level 2, 10 mg, 6 patients): 0 | Creatinine (raised), no. of patients (level 2, 10 mg, 6 patients): 0 | Diarrhoea, no. of patients (level 2, 10 mg, 6 patients): 0 | Fatigue, no. of patients (level 2, 10 mg, 6 patients): 0 | Leukopenia, no. of patients (level 2, 10 mg, 6 patients): 0 | Lymphopenia, no. of patients (level 2, 10 mg, 6 patients): 2 | Mucositis, no. of patients (level 2, 10 mg, 6 patients): 0 | Myositis, no. of patients (level 2, 10 mg, 6 patients): 0 | Nausea, no. of patients (level 2, 10 mg, 6 patients): 0 | Neutropenia, no. of patients (level 2, 10 mg, 6 patients): 0 | QT prolongation, no. of patients (level 2, 10 mg, 6 patients): 0 | Supra ventricular arrythmia, no. of patients (level 2, 10 mg, 6 patients): 0 | Syncope, no. of patients (level 2, 10 mg, 6 patients): 0 | Thrombocytopenia, no. of patients (level 2, 10 mg, 6 patients): 0 | Ventricular arrythmias (PVCs), no. of patients (level 2, 10 mg, 6 patients): 0 | Ventricular bigemini, no. of patients (level 2, 10 mg, 6 patients): 0 | Vomiting, no. of patients (level 2, 10 mg, 6 patients): 0 | ALT (raised), no. of patients (level 3, 20 mg, 6 patients): 0 | AST (raised), no. of patients (level 3, 20 mg, 6 patients): 0 | Abdominal pain, no. of patients (level 3, 20 mg, 6 patients): 0 | Alkaline phophatase (raised), no. of patients (level 3, 20 mg, 6 patients): 1 | Altered taste, no. of patients (level 3, 20 mg, 6 patients): 0 | Anaemia, no. of patients (level 3, 20 mg, 6 patients): 1 | Anorexia, no. of patients (level 3, 20 mg, 6 patients): 0 | Bilirubin (raised), no. of patients (level 3, 20 mg, 6 patients): 0 | CPK, no. of patients (level 3, 20 mg, 6 patients): 1 | Cardiac arrythmia other, no. of patients (level 3, 20 mg, 6 patients): 0 | Cardiac dysfunction, no. of patients (level 3, 20 mg, 6 patients): 0 | Cardiac ischaemia, no. of patients (level 3, 20 mg, 6 patients): 0 | Constipation, no. of patients (level 3, 20 mg, 6 patients): 0 | Creatinine (raised), no. of patients (level 3, 20 mg, 6 patients): 0 | Diarrhoea, no. of patients (level 3, 20 mg, 6 patients): 0 | Fatigue, no. of patients (level 3, 20 mg, 6 patients): 0 | Leukopenia, no. of patients (level 3, 20 mg, 6 patients): 0 | Lymphopenia, no. of patients (level 3, 20 mg, 6 patients): 0 | Mucositis, no. of patients (level 3, 20 mg, 6 patients): 0 | Myositis, no. of patients (level 3, 20 mg, 6 patients): 1 | Nausea, no. of patients (level 3, 20 mg, 6 patients): 0 | Neutropenia, no. of patients (level 3, 20 mg, 6 patients): 0 | QT prolongation, no. of patients (level 3, 20 mg, 6 patients): 0 | Supra ventricular arrythmia, no. of patients (level 3, 20 mg, 6 patients): 0 | Syncope, no. of patients (level 3, 20 mg, 6 patients): 1 | Thrombocytopenia, no. of patients (level 3, 20 mg, 6 patients): 0 | Ventricular arrythmias (PVCs), no. of patients (level 3, 20 mg, 6 patients): 0 | Ventricular bigemini, no. of patients (level 3, 20 mg, 6 patients): 0 | Vomiting, no. of patients (level 3, 20 mg, 6 patients): 0 | ALT (raised), no. of patients (level 4, 30 mg, 4 patients): 0 | AST (raised), no. of patients (level 4, 30 mg, 4 patients): 0 | Abdominal pain, no. of patients (level 4, 30 mg, 4 patients): 0 | Alkaline phophatase (raised), no. of patients (level 4, 30 mg, 4 patients): 0 | Altered taste, no. of patients (level 4, 30 mg, 4 patients): 0 | Anaemia, no. of patients (level 4, 30 mg, 4 patients): 0 | Anorexia, no. of patients (level 4, 30 mg, 4 patients): 0 | Bilirubin (raised), no. of patients (level 4, 30 mg, 4 patients): 0 | CPK, no. of patients (level 4, 30 mg, 4 patients): 0 | Cardiac arrythmia other, no. of patients (level 4, 30 mg, 4 patients): 0 | Cardiac dysfunction, no. of patients (level 4, 30 mg, 4 patients): 0 | Cardiac ischaemia, no. of patients (level 4, 30 mg, 4 patients): 0 | Constipation, no. of patients (level 4, 30 mg, 4 patients): 0 | Creatinine (raised), no. of patients (level 4, 30 mg, 4 patients): 0 | Diarrhoea, no. of patients (level 4, 30 mg, 4 patients): 0 | Fatigue, no. of patients (level 4, 30 mg, 4 patients): 0 | Leukopenia, no. of patients (level 4, 30 mg, 4 patients): 0 | Lymphopenia, no. of patients (level 4, 30 mg, 4 patients): 0 | Mucositis, no. of patients (level 4, 30 mg, 4 patients): 0 | Myositis, no. of patients (level 4, 30 mg, 4 patients): 0 | Nausea, no. of patients (level 4, 30 mg, 4 patients): 0 | Neutropenia, no. of patients (level 4, 30 mg, 4 patients): 0 | QT prolongation, no. of patients (level 4, 30 mg, 4 patients): 0 | Supra ventricular arrythmia, no. of patients (level 4, 30 mg, 4 patients): 0 | Syncope, no. of patients (level 4, 30 mg, 4 patients): 0 | Thrombocytopenia, no. of patients (level 4, 30 mg, 4 patients): 0 | Ventricular arrythmias (PVCs), no. of patients (level 4, 30 mg, 4 patients): 0 | Ventricular bigemini, no. of patients (level 4, 30 mg, 4 patients): 0 | Vomiting, no. of patients (level 4, 30 mg, 4 patients): 0 | ALT (raised), no. of patients (level 5, 50 mg, 4 patients): 0 | AST (raised), no. of patients (level 5, 50 mg, 4 patients): 0 | Abdominal pain, no. of patients (level 5, 50 mg, 4 patients): 0 | Alkaline phophatase (raised), no. of patients (level 5, 50 mg, 4 patients): 0 | Altered taste, no. of patients (level 5, 50 mg, 4 patients): 0 | Anaemia, no. of patients (level 5, 50 mg, 4 patients): 0 | Anorexia, no. of patients (level 5, 50 mg, 4 patients): 0 | Bilirubin (raised), no. of patients (level 5, 50 mg, 4 patients): 0 | CPK, no. of patients (level 5, 50 mg, 4 patients): 0 | Cardiac arrythmia other, no. of patients (level 5, 50 mg, 4 patients): 0 | Cardiac dysfunction, no. of patients (level 5, 50 mg, 4 patients): 0 | Cardiac ischaemia, no. of patients (level 5, 50 mg, 4 patients): 0 | Constipation, no. of patients (level 5, 50 mg, 4 patients): 0 | Creatinine (raised), no. of patients (level 5, 50 mg, 4 patients): 0 | Diarrhoea, no. of patients (level 5, 50 mg, 4 patients): 0 | Fatigue, no. of patients (level 5, 50 mg, 4 patients): 0 | Leukopenia, no. of patients (level 5, 50 mg, 4 patients): 0 | Lymphopenia, no. of patients (level 5, 50 mg, 4 patients): 2 | Mucositis, no. of patients (level 5, 50 mg, 4 patients): 0 | Myositis, no. of patients (level 5, 50 mg, 4 patients): 0 | Nausea, no. of patients (level 5, 50 mg, 4 patients): 0 | Neutropenia, no. of patients (level 5, 50 mg, 4 patients): 0 | QT prolongation, no. of patients (level 5, 50 mg, 4 patients): 0 | Supra ventricular arrythmia, no. of patients (level 5, 50 mg, 4 patients): 0 | Syncope, no. of patients (level 5, 50 mg, 4 patients): 0 | Thrombocytopenia, no. of patients (level 5, 50 mg, 4 patients): 0 | Ventricular arrythmias (PVCs), no. of patients (level 5, 50 mg, 4 patients): 0 | Ventricular bigemini, no. of patients (level 5, 50 mg, 4 patients): 0 | Vomiting, no. of patients (level 5, 50 mg, 4 patients): 0 | ALT (raised), no. of patients (level 5.5, 60 mg, 7 patients): 2
